Source: patent US10364247B2, “Preparation and use of novel protein kinase inhibitors” (Ruijin Hospital Affiliated to Shanghai Jiao Tong University …, priority 2015, dated 2019)

Tests used:
Experiment in all cases: KINOMEscan competition binding
JNK2 = JNK2 (Homo sapiens, UniProt P45984); details: JNK2 (Entrez MAPK9), read-out: Percent Control
How it was run: (§1)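 Cmpd 10 μM vs immobilized active-site-directed ligand; competition binding; output % Ctrl, lower = stronger.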

KIT(V559D, T670I) = KIT(V559D, T670I) (Homo sapiens, UniProt P10721, T670I/V559D); details: read-out: Percent Control
How it was run: as §1

CDC2L1 = molecular target: T1, CDC2L1 (Homo sapiens, UniProt P21127); details: CDC2L1 (Entrez CDK11B), read-out: Percent Control
T1 construct: purchased KINOMEscan (screening service)
How it was run: as §1

CSK = CSK (Homo sapiens, UniProt P41240); details: read-out: Percent Control
How it was run: as §1

EPHA5 = EPHA5 (Homo sapiens, UniProt P54756); details: read-out: Percent Control
How it was run: as §1

AURKC = molecular target: T2, AURKC (Homo sapiens, UniProt Q9UQB9); details: read-out: Percent Control
T2 construct: purchased KINOMEscan (screening service)
T2 sequence (Q9UQB9 whole entry): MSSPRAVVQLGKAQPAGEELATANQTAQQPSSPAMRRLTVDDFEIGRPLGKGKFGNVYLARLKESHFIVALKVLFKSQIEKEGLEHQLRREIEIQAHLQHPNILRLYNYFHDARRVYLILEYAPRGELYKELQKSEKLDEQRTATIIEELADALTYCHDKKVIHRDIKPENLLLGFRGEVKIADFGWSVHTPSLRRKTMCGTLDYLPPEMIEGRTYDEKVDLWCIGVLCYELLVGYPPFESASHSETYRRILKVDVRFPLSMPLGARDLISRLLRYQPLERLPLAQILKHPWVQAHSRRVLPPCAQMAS
How it was run: as §1

TNNI3K = molecular target: T3, TNNI3K (Homo sapiens, UniProt Q59H18); details: read-out: Percent Control
T3 construct: purchased KINOMEscan (panel service)
How it was run: as §1

TNIK = TNIK (Homo sapiens, UniProt Q9UKE5); details: read-out: Percent Control
How it was run: as §1

PRKCQ = molecular target: T4, PRKCQ (Homo sapiens, UniProt Q04759); details: read-out: Percent Control
T4 construct: purchased KINOMEscan (screening platform)
T4 sequence (Q04759 whole entry): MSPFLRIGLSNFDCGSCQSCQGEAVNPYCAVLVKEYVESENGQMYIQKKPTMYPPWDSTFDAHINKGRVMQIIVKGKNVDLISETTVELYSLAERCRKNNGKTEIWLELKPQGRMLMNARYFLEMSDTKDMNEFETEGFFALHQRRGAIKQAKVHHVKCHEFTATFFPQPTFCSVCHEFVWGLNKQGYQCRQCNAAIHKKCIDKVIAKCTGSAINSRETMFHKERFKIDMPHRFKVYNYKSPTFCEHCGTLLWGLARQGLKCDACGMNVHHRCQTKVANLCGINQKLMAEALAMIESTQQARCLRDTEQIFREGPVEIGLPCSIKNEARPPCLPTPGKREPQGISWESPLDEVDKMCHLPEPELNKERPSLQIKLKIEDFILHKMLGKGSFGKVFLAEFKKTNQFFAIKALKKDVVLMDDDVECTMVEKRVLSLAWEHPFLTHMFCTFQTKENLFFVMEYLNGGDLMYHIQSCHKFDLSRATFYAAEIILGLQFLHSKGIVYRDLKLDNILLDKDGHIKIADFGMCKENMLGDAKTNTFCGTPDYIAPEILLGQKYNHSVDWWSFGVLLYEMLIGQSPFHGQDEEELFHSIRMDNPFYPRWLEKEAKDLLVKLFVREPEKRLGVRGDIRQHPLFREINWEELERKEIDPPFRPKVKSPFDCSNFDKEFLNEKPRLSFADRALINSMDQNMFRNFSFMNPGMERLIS
How it was run: as §1

ABL1-phosphorylated = ABL1-phosphorylated (Homo sapiens, UniProt P00519); details: read-out: Percent Control
How it was run: as §1

EGFR = molecular target: T5, EGFR (Homo sapiens, UniProt P00533); details: read-out: Percent Control
T5 construct: purchased KINOMEscan (panel service)
How it was run: as §1

EPHA4 = EPHA4 (Homo sapiens, UniProt P54764); details: read-out: Percent Control
How it was run: as §1

ZAK = ZAK (Homo sapiens, UniProt Q9NYL2); details: read-out: Percent Control
How it was run: as §1

MAP3K15 = molecular target: T6, MAP3K15 (Homo sapiens, UniProt Q6ZN16); details: read-out: Percent Control
T6 construct: purchased KINOMEscan (screening service)
T6 sequence (Q6ZN16 whole entry): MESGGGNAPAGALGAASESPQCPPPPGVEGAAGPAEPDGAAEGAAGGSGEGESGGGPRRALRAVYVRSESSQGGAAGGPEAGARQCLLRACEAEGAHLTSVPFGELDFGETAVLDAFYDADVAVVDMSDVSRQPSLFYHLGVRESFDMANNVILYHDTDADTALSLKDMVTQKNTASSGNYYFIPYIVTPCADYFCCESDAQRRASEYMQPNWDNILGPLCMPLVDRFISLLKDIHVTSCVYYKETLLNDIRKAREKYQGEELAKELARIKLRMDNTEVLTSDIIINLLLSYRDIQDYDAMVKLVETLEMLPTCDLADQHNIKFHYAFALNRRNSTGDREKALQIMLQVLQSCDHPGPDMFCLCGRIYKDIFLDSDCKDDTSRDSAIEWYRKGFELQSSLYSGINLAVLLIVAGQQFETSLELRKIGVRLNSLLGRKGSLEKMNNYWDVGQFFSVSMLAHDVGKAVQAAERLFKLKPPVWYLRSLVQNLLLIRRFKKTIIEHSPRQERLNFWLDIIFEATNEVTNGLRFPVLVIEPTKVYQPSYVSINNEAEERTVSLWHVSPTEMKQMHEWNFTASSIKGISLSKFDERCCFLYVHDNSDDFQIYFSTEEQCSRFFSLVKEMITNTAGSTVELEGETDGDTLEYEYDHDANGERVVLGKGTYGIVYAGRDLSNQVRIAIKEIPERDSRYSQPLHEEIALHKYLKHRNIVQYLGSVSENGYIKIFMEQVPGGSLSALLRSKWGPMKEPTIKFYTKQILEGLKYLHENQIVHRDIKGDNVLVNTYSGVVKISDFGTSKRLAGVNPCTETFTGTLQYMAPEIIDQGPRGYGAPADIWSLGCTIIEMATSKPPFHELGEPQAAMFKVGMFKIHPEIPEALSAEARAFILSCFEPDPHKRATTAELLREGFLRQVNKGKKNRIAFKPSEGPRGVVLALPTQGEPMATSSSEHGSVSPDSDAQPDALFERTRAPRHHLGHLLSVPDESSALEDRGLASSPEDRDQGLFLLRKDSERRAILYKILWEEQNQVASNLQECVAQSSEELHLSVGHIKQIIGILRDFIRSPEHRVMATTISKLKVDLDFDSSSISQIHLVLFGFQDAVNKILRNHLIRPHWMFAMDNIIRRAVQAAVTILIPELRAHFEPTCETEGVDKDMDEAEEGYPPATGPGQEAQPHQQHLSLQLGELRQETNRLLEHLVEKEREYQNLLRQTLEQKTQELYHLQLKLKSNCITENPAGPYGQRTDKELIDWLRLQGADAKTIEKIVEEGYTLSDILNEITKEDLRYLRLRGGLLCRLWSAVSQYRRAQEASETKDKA
How it was run: as §1

YES = molecular target: T7, YES (Homo sapiens, UniProt P07947); details: YES (Entrez YES1), read-out: Percent Control
T7 construct: purchased KINOMEscan (panel service)
How it was run: as §1

EPHB1 = molecular target: T8, EPHB1 (Homo sapiens, UniProt P54762); details: read-out: Percent Control
T8 construct: purchased KINOMEscan (panel service)
T8 sequence (P54762 18-984): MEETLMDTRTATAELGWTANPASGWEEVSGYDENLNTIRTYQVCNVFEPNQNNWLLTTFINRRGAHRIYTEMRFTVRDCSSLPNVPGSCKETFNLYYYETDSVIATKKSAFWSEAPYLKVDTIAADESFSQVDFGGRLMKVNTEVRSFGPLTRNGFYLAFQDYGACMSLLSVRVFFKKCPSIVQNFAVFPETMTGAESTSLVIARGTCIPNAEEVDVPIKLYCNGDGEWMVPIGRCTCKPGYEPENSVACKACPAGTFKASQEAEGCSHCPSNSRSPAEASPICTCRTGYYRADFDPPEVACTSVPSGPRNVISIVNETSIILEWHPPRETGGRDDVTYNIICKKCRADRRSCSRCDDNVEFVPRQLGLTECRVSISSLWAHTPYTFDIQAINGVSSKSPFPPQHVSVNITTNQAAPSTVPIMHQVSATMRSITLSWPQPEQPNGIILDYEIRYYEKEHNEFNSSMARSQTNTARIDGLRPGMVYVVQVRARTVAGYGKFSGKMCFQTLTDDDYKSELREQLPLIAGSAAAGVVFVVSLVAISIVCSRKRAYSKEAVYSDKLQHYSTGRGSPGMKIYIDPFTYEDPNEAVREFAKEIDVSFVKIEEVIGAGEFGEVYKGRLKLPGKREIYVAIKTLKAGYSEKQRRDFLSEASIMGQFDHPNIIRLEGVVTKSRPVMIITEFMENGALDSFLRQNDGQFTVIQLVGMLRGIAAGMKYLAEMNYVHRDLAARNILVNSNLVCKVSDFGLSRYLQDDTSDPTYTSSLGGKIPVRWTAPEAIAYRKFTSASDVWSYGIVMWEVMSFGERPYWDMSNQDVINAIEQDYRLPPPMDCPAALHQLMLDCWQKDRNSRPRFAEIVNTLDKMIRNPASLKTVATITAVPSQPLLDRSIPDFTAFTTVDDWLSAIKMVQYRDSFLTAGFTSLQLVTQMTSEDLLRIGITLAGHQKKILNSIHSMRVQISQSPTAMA
How it was run: as §1

EGFR(S752-I759del) = EGFR(S752-I759del) (Homo sapiens, UniProt P00533, DEL752-759); details: read-out: Percent Control
How it was run: as §1

DRAK2 = molecular target: T9, DRAK2 (Homo sapiens, UniProt O94768); details: DRAK2 (Entrez STK17B), read-out: Percent Control
T9 construct: purchased KINOMEscan (screening service)
T9 sequence (O94768 whole entry): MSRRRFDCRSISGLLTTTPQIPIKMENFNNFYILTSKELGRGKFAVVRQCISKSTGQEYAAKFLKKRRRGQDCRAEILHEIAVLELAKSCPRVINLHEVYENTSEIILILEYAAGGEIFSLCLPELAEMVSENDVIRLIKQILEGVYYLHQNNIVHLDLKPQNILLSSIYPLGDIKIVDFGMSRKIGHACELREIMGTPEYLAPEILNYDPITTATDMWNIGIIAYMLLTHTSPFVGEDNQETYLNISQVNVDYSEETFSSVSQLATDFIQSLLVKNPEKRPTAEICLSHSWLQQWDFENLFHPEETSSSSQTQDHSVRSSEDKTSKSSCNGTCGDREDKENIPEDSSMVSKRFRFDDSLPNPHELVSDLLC
How it was run: as §1

YSK4 = YSK4 (Homo sapiens, UniProt Q56UN5); details: read-out: Percent Control
How it was run: as §1

TAOK2 = molecular target: T10, TAOK2 (Homo sapiens, UniProt Q9UL54); details: read-out: Percent Control
T10 construct: purchased KINOMEscan (screening service)
How it was run: as §1

TXK = molecular target: T11, TXK (Homo sapiens, UniProt P42681); details: read-out: Percent Control
T11 construct: purchased KINOMEscan (panel service)
T11 sequence (P42681 whole entry): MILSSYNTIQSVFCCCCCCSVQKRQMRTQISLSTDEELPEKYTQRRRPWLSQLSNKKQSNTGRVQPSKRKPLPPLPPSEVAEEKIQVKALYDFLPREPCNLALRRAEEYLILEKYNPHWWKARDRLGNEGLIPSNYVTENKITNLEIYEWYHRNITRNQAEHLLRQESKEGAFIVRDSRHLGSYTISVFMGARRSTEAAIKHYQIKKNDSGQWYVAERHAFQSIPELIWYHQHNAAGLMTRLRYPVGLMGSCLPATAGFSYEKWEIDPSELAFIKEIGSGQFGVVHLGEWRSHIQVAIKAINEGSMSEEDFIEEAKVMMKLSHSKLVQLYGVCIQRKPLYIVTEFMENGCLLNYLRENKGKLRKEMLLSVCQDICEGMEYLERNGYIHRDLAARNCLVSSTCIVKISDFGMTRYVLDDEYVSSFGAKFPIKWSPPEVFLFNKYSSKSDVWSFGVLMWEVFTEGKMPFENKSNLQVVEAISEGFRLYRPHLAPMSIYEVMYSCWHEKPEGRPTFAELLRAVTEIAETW
How it was run: as §1

EPHB4 = EPHB4 (Homo sapiens, UniProt P54760); details: read-out: Percent Control
How it was run: as §1

PIP5K1C = molecular target: T12, PIP5K1C (Homo sapiens, UniProt O60331); details: read-out: Percent Control
T12 construct: purchased KINOMEscan (screening service)
How it was run: as §1

FGFR2 = FGFR2 (Homo sapiens, UniProt P21802); details: read-out: Percent Control
How it was run: as §1

EGFR(E746-A750del) = EGFR(E746-A750del) (Homo sapiens, UniProt P00533, DEL746-750); details: read-out: Percent Control
How it was run: as §1

TEC = TEC (Homo sapiens, UniProt P42680); details: read-out: Percent Control
How it was run: as §1

NEK4 = molecular target: T13, NEK4 (Homo sapiens, UniProt P51957); details: read-out: Percent Control
T13 construct: purchased KINOMEscan (screening platform)
T13 sequence (P51957 whole entry): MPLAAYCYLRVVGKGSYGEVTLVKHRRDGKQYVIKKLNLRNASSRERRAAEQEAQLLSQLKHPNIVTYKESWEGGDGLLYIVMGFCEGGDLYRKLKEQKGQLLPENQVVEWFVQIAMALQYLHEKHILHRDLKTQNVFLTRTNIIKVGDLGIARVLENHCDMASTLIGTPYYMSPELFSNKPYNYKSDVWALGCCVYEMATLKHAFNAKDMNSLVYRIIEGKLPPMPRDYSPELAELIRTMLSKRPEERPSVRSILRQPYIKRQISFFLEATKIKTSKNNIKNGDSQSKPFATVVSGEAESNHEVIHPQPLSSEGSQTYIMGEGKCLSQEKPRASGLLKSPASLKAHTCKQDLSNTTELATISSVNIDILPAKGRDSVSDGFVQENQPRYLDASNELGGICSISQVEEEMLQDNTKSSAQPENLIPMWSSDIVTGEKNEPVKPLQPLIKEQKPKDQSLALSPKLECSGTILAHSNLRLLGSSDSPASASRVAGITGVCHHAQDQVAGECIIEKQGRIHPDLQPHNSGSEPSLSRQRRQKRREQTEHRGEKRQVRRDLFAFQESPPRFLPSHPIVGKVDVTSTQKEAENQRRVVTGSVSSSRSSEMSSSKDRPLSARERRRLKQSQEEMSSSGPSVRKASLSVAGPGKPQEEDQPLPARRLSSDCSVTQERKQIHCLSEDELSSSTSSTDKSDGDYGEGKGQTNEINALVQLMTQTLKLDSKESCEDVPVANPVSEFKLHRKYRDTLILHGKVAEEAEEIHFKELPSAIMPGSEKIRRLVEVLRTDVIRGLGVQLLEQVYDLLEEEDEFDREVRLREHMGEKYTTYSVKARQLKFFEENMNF
How it was run: as §1

BRAF = BRAF (Homo sapiens, UniProt P15056); details: read-out: Percent Control
How it was run: as §1

EGFR(L858R) = molecular target: T14, EGFR(L858R) (Homo sapiens, UniProt P00533, L858R); details: read-out: Percent Control
T14 construct: purchased KINOMEscan (panel service)
How it was run: as §1

[1] = molecular target: T15, ABL1(Y253F)-phosphorylated (Homo sapiens, UniProt P00519, Y253F); details: read-out: Percent Control
T15 construct: purchased KINOMEscan (panel service)
How it was run: as §1

TNK2 = TNK2 (Homo sapiens, UniProt Q07912); details: read-out: Percent Control
How it was run: as §1

FES = FES (Homo sapiens, UniProt P07332); details: read-out: Percent Control
How it was run: as §1

Compound: Cc1ccc(Nc2ncc3c(n2)N(C)CN(c2cc(NC(=O)c4cccc(C(F)(F)F)c4)ccc2C)C3)cn1 [IA-9, N-(4-methyl-3-(1-methyl-7-((6-methylpyridin-3-yl)amino)-1,4-dihydropyrimido[4,5-d]pyrimidin-3(2H)-yl)phenyl)-3-(trifluoromethyl)benzamide]
- remaining binding at 10 µM (JNK2): 0.7%
- remaining binding at 10 µM (KIT(V559D, T670I)): 0.3%
- remaining binding at 10 µM (CDC2L1): 15%
- remaining binding at 10 µM (CSK): 0.9%
- remaining binding at 10 µM (EPHA5): 0.9%
- remaining binding at 10 µM (AURKC): 6.9%
- remaining binding at 10 µM (TNNI3K): 0.1%
- remaining binding at 10 µM (TNIK): 4.8%
- remaining binding at 10 µM (PRKCQ): 25%
- remaining binding at 10 µM (ABL1-phosphorylated): 0.3%
- remaining binding at 10 µM (EGFR): 0.05%
- remaining binding at 10 µM (EPHA4): 0%
- remaining binding at 10 µM (ZAK): 0.55%
- remaining binding at 10 µM (MAP3K15): 8.4%
- remaining binding at 10 µM (YES): 0.05%
- remaining binding at 10 µM (EPHB1): 0.15%
- remaining binding at 10 µM (EGFR(S752-I759del)): 0%
- remaining binding at 10 µM (DRAK2): 17%
- remaining binding at 10 µM (YSK4): 0.3%
- remaining binding at 10 µM (TAOK2): 15%
- remaining binding at 10 µM (TXK): 0%
- remaining binding at 10 µM (EPHB4): 0%
- remaining binding at 10 µM (PIP5K1C): 21%
- remaining binding at 10 µM (FGFR2): 2.7%
- remaining binding at 10 µM (EGFR(E746-A750del)): 2.3%
- remaining binding at 10 µM (TEC): 0.55%
- remaining binding at 10 µM (NEK4): 30%
- remaining binding at 10 µM (BRAF): 0.5%
- remaining binding at 10 µM (EGFR(L858R)): 0.05%
- remaining binding at 10 µM [1]: 0.15%
- remaining binding at 10 µM (TNK2): 2.4%
- remaining binding at 10 µM (FES): 0.7%
